{"source": "patent US20090087845A1", "about": "“Genetic Markers Of True Low Birth Weight” (priority 2005, published 2009)", "test_system": "placental gene expression", "test": "Placental gene expression (Affymetrix Rat Genome Chip 230.2) after SSRI (fluoxetine) exposure throughout gestation", "type": "in vivo", "protocol": "Gene expression data from pregnant rats under different forms of dietary restriction was gathered. […] (N=8) • Group 2 (CR50): Rats Given 50% of their Normal Daily Intake of Food. (N=5) • Group 3 (CR70): Rats Given 70% of their Normal Daily Intake of Food. […] (N=6) Placentas from the rats of each Group were harvested on Day 21 of gestation. RNA was extracted and gene expression was measured based on hybridization of RNA to Affymetrix Rat Genome Chips™ (230.2) (Affymetrix, Santa Clara, Calif.).\nIn order to determine whether placental gene expression profiling can be used to identify other prenatal exposures such as toxicants and drugs, a group of rats with drug exposure was monitored as described above. […] As with control, CR50, CR70, and HF groups, placentas from the mothers were sampled after 21 days of gestation and gene expression monitored utilizing an Affymetrix Rat Genome Chip.", "key": {"[1]": {"settings": "rat placenta, day 21 of gestation, individual animals of SSRI group"}}, "note": "“And” between values parts separate entries of the source, which are not always exact repeats. Identical values can stand only once."}
{"compound": "CNCCC(Oc1ccc(C(F)(F)F)cc1)c1ccccc1", "note": "(stereo not shown) [fluoxetine, Fluoxetine]", "values": [{"measurement": "expression, probeset 1391042_at", "setting": "placenta, SSRI-exposed samples", "value": "7.197 and 7.167 and 6.844 and 6.389 and 6.757 and 6.835"}, {"measurement": "expression, probeset 1391078_at", "setting": "placenta, SSRI-exposed samples", "value": "9.617 and 9.614 and 9.751 and 9.434 and 10.05 and 9.264"}, {"measurement": "expression, probeset 1391376_at", "setting": "placenta, SSRI-exposed samples", "value": "7.297 and 7.473 and 6.881 and 6.738 and 6.838 and 6.654"}, {"measurement": "expression, probeset 1391555_at", "setting": "placenta, SSRI-exposed samples", "value": "7.012 and 7.728 and 6.644 and 6.541 and 6.178 and 6.968"}, {"measurement": "expression, probeset 1391709_at", "setting": "placenta, SSRI-exposed samples", "value": "4.661 and 4.684 and 4.722 and 4.806 and 4.713 and 4.47"}, {"measurement": "expression, probeset 1392028_at", "setting": "placenta, SSRI-exposed samples", "value": "6.162 and 6.747 and 6.346 and 6.242 and 6.323 and 6.159"}, {"measurement": "expression, probeset 1392231_at", "setting": "placenta, SSRI-exposed samples", "value": "6.879 and 7.148 and 7.615 and 7.767 and 7.913 and 7.35"}, {"measurement": "expression, probeset 1392936_at", "setting": "placenta, SSRI-exposed samples", "value": "8.882 and 8.406 and 9.262 and 8.975 and 9.393 and 8.807"}, {"measurement": "expression, probeset 1392950_at", "setting": "placenta, SSRI-exposed samples", "value": "3.949 and 4.094 and 3.999 and 4.085 and 4.164 and 3.919"}, {"measurement": "expression, probeset 1393104_at", "setting": "placenta, SSRI-exposed samples", "value": "5.321 and 5.704 and 5.504 and 5.333 and 5.921 and 5.58"}, {"measurement": "expression, probeset 1393266_at", "setting": "placenta, SSRI-exposed samples", "value": "4.99 and 5.174 and 4.982 and 4.609 and 4.824 and 4.636"}, {"measurement": "expression, probeset 1393517_at", "setting": "placenta, SSRI-exposed samples", "value": "6.631 and 6.746 and 6.287 and 6.483 and 6.515 and 6.633"}, {"measurement": "expression, probeset 1393539_at", "setting": "placenta, SSRI-exposed samples", "value": "6.157 and 5.169 and 4.952 and 5.172 and 5.083 and 5.053"}, {"measurement": "expression, probeset 1393580_at", "setting": "placenta, SSRI-exposed samples", "value": "5.687 and 6.03 and 5.819 and 5.753 and 6.108 and 5.967"}, {"measurement": "expression, probeset 1393752_at", "setting": "placenta, SSRI-exposed samples", "value": "6.208 and 6.548 and 6.148 and 6.455 and 6.651 and 6.417"}, {"measurement": "expression, probeset 1393798_at", "setting": "placenta, SSRI-exposed samples", "value": "3.547 and 3.62 and 3.802 and 3.629 and 3.836 and 3.782"}, {"measurement": "expression, probeset 1393853_at", "setting": "placenta, SSRI-exposed samples", "value": "5.346 and 5.933 and 5.865 and 5.835 and 5.821 and 5.912"}, {"measurement": "expression, probeset 1393939_at", "setting": "placenta, SSRI-exposed samples", "value": "4.71 and 4.865 and 4.742 and 4.586 and 4.592 and 4.507"}, {"measurement": "expression, probeset 1393989_at", "setting": "placenta, SSRI-exposed samples", "value": "5.99 and 6.475 and 6.07 and 6.001 and 6.425 and 6.268"}, {"measurement": "expression, probeset 1394361_a_at", "setting": "placenta, SSRI-exposed samples", "value": "4.204 and 4.507 and 4.247 and 4.097 and 4.402 and 4.275"}, {"measurement": "expression, probeset 1394414_at", "setting": "placenta, SSRI-exposed samples", "value": "9.565 and 9.667 and 9.428 and 9.394 and 9.769 and 9.655"}, {"measurement": "expression, probeset 1394498_at", "setting": "placenta, SSRI-exposed samples", "value": "5.626 and 5.476 and 5.778 and 5.78 and 5.589 and 5.688"}, {"measurement": "expression, probeset 1394762_at", "setting": "placenta, SSRI-exposed samples", "value": "3.748 and 3.837 and 3.727 and 3.741 and 3.941 and 3.853"}, {"measurement": "expression, probeset 1394790_at", "setting": "placenta, SSRI-exposed samples", "value": "6.185 and 6.363 and 6.208 and 6.069 and 6.016 and 6.008"}, {"measurement": "expression, probeset 1395303_at", "setting": "placenta, SSRI-exposed samples", "value": "3.284 and 3.242 and 3.289 and 3.3 and 3.261 and 3.274"}, {"measurement": "expression, probeset 1395316_at", "setting": "placenta, SSRI-exposed samples", "value": "6.786 and 6.744 and 6.399 and 5.525 and 5.977 and 6.48"}, {"measurement": "expression, probeset 1395875_at", "setting": "placenta, SSRI-exposed samples", "value": "7.411 and 7.212 and 7.607 and 7.667 and 7.918 and 7.66"}, {"measurement": "expression, probeset 1395951_at", "setting": "placenta, SSRI-exposed samples", "value": "4.46 and 4.582 and 4.341 and 4.395 and 4.516 and 4.568"}, {"measurement": "expression, probeset 1395970_at", "setting": "placenta, SSRI-exposed samples", "value": "4.781 and 4.846 and 4.597 and 4.342 and 4.707 and 4.733"}, {"measurement": "expression, probeset 1396104_at", "setting": "placenta, SSRI-exposed samples", "value": "5.464 and 5.416 and 5.468 and 5.564 and 5.567 and 5.601"}, {"measurement": "expression, probeset 1396326_at", "setting": "placenta, SSRI-exposed samples", "value": "5.928 and 5.926 (2×) and 5.857 and 6.008 and 5.802"}, {"measurement": "expression, probeset 1397116_at", "setting": "placenta, SSRI-exposed samples", "value": "3.723 and 3.556 and 3.711 and 3.773 and 3.705 and 3.589"}, {"measurement": "expression, probeset 1397187_at", "setting": "placenta, SSRI-exposed samples", "value": "5.847 and 6.088 and 6.024 and 5.915 and 5.91 and 5.886"}, {"measurement": "expression, probeset 1397500_x_at", "setting": "placenta, SSRI-exposed samples", "value": "6.721 and 7.079 and 6.818 and 6.587 and 6.983 and 6.477"}, {"measurement": "expression, probeset 1397676_at", "setting": "placenta, SSRI-exposed samples", "value": "6.024 and 6.128 and 5.935 and 6.174 and 6.311 and 5.898"}, {"measurement": "expression, probeset 1397738_at", "setting": "placenta, SSRI-exposed samples", "value": "4.159 and 4.154 and 4.198 and 4.197 and 4.131 and 4.271"}, {"measurement": "expression, probeset 1397834_at", "setting": "placenta, SSRI-exposed samples", "value": "6.223 and 6.44 and 5.752 and 5.565 and 5.81 and 5.978"}, {"measurement": "expression, probeset 1397911_at", "setting": "placenta, SSRI-exposed samples", "value": "5.777 and 6.103 and 5.669 and 5.522 and 5.664 and 5.597"}, {"measurement": "expression, probeset 1397956_at", "setting": "placenta, SSRI-exposed samples", "value": "5.497 and 5.765 and 4.575 and 4.745 and 5.255 and 5.147"}, {"measurement": "expression, probeset 1398025_at", "setting": "placenta, SSRI-exposed samples", "value": "6.981 and 7.045 and 6.561 and 6.889 and 6.773 and 6.868"}, {"measurement": "expression, probeset 1398196_at", "setting": "placenta, SSRI-exposed samples", "value": "5.275 and 5.259 and 5.614 and 5.101 and 5.599 and 5.566"}, {"measurement": "expression, probeset 1398208_s_at", "setting": "placenta, SSRI-exposed samples", "value": "6.67 and 6.822 and 6.248 and 6.32 and 5.983 and 6.359"}, {"measurement": "expression, probeset 1398571_x_at", "setting": "placenta, SSRI-exposed samples", "value": "5.476 and 5.783 and 5.339 and 5.581 and 5.638 and 5.597"}, {"measurement": "number of probe sets whose expression was altered by exposure", "setting": "rat placenta, day 21 of gestation, approximately 10 mg/kg/day in drinking water throughout pregnancy, vs control", "value": 281, "unit": "probe sets"}, {"measurement": "Log base 2 expression for G6 (probe set 1369132, solute carrier 18, member 2)", "setting": "[1]", "value": "8.97 log base 2 and 9.76 log base 2 and 8.56 log base 2 and 8.71 log base 2 and 8.41 log base 2 and 9.1 log base 2"}, {"measurement": "Log base 2 expression for G7 (probe set 1368474, vascular adhesion molecule 1)", "setting": "[1]", "value": "5.83 log base 2 and 6.83 log base 2 and 5.81 log base 2 and 5.78 log base 2 and 6.05 log base 2"}, {"measurement": "Log base 2 expression for G8 (probe set 1388116, collagen type 1 alpha)", "setting": "[1]", "value": "8.34 log base 2 and 8.25 log base 2 and 7.56 log base 2 and 7.7 log base 2 and 7.57 log base 2 and 7.69 log base 2"}, {"measurement": "Log base 2 expression for G9 (probe set 1368558, allograft inflammatory factor 1)", "setting": "[1]", "value": "5.07 log base 2 and 5.61 log base 2 and 6.11 log base 2 and 5.3 log base 2 and 5.39 log base 2"}, {"measurement": "Log base 2 expression for G10 (probe set 1387796, arachidonate 12 lipoxygenase)", "setting": "[1]", "value": "7.19 log base 2 and 8.37 log base 2 and 8.23 log base 2 and 6.76 log base 2 and 8.03 log base 2"}]}
